Measurements published in PMC9109600 (ACS chemical biology, 2021).

Target: T1, Guanine deaminase (GDA) (Homo sapiens, UniProt Q9Y2T3)
T1 sequence (Q9Y2T3 1-454): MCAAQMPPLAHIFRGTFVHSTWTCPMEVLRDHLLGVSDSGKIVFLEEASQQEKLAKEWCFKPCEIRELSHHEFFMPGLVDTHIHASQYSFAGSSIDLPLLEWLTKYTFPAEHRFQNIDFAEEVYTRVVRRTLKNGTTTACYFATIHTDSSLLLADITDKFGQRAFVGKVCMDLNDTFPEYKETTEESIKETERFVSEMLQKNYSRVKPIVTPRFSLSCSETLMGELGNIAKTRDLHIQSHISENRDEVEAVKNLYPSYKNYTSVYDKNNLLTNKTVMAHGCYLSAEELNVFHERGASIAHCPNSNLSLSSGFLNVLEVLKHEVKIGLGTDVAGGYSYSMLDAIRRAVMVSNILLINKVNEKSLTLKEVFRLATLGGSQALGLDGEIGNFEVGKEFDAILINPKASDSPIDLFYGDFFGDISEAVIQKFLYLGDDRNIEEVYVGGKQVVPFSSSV
Experiment: real-time fluorescence inhibition assay with tzGN as substrate
Assay type: biochemical

IC50 [µM] | Compound
80 | NC(=O)c1nscc1N [ATCA, 4-aminoisothiazole-3-carboxamide]
100 | NC(=O)c1[nH]cnc1N [AICA, 5-aminoimidazole-4-carboxamide]

Compound | IC50 [µM]
O=C(O)c1c[nH]cn1 [ICA, 4-imidazolecarboxylic acid] | 2000
